Data: ChEMBL document CHEMBL3120154, “2-[N-Alkyl(R-phenyl)-aminomethyl]-3-phenyl-7-trifluoromethylquinoxalines as anticancer agents inhibitors of folate enzymes” (Eur J Med Chem, 2014)

Legend:
Format in all cases: functional
HOP-92 = assay: Cytotoxicity against human HOP92 cells at 10^-8 M after 48 hrs by SRB assay; details: HOP-92, 48 h, read-out: GI
[1] = Cytotoxicity against human UACC257 cells at 10^-8 M after 48 hrs by SRB assay; details: UACC-257, 48 h, read-out: GI
KM12 = assay: Cytotoxicity against human KM12 cells at 10^-7 M after 48 hrs by SRB assay; details: KM12, 48 h, read-out: GI
K562 = assay: Cytotoxicity against human K562 cells at 10^-6 M after 48 hrs by SRB assay; details: K562, 48 h, read-out: GI
SF-539 [2] = assay: Cytotoxicity against human SF539 cells at 10^-7 M after 48 hrs by SRB assay; details: SF-539, 48 h, read-out: GI
HOP-62 = assay: Cytotoxicity against human HOP62 cells at 10^-7 M after 48 hrs by SRB assay; details: HOP-62, 48 h, read-out: GI
HCC 2998 = assay: Cytotoxicity against human HCC2998 cells at 10^-7 M after 48 hrs by SRB assay; details: HCC 2998, 48 h, read-out: GI
[3] = Cytotoxicity against human UO31 cells at 10^-6 M after 48 hrs by SRB assay; details: UO-31, 48 h, read-out: GI
TK-10 = assay: Cytotoxicity against human TK10 cells at 10^-8 M after 48 hrs by SRB assay; details: TK-10, 48 h, read-out: GI
LOX IMVI = assay: Cytotoxicity against human LOXIMVI cells at 10^-8 M after 48 hrs by SRB assay; details: read-out: GI
OVCAR-3 [4] = assay: Cytotoxicity against human OVCAR3 cells at 10^-8 M after 48 hrs by SRB assay; details: OVCAR-3, 48 h, read-out: GI
SF-295 [5] = assay: Cytotoxicity against human SF295 cells at 10^-5 M after 48 hrs by SRB assay; details: SF-295, 48 h, read-out: GI
MDA-MB-231 = assay: Cytotoxicity against human MDA-MB-231 cells at 10^-8 M after 48 hrs by SRB assay; details: MDA-MB-231, 48 h, read-out: GI
SW-620 [6] = assay: Cytotoxicity against human SW620 cells at 10^-7 M after 48 hrs by SRB assay; details: SW-620, 48 h, read-out: GI
NCI-H322M = assay: Cytotoxicity against human NCI-H322M cells at 10^-7 M after 48 hrs by SRB assay; details: read-out: GI
SK-MEL-2 = assay: Cytotoxicity against human SK-MEL-2 cells at 10^-7 M after 48 hrs by SRB assay; details: SK-MEL-2, 48 h, read-out: GI
RXF 393 [7] = assay: Cytotoxicity against human RXF393 cells at 10^-8 M after 48 hrs by SRB assay; details: RXF 393, 48 h, read-out: GI
SF-268 = assay: Cytotoxicity against human SF268 cells at 10^-7 M after 48 hrs by SRB assay; details: SF-268, 48 h, read-out: GI
[8] = Cytotoxicity against human OVCAR5 cells at 10^-8 M after 48 hrs by SRB assay; details: OVCAR-5, 48 h, read-out: GI
CAKI-1 [9] = assay: Cytotoxicity against human Caki1 cells at 10^-8 M after 48 hrs by SRB assay; details: CAKI-1, 48 h, read-out: GI
SF-539 [10] = assay: Cytotoxicity against human SF539 cells at 10^-8 M after 48 hrs by SRB assay; details: SF-539, 48 h, read-out: GI
OVCAR-3 [11] = assay: Cytotoxicity against human OVCAR3 cells at 10^-7 M after 48 hrs by SRB assay; details: OVCAR-3, 48 h, read-out: GI
HCT-116 [12] = assay: Cytotoxicity against human HCT116 cells at 10^-7 M after 48 hrs by SRB assay; details: HCT-116, 48 h, read-out: GI
A498 = assay: Cytotoxicity against human A498 cells at 10^-8 M after 48 hrs by SRB assay; details: A498, 48 h, read-out: GI
HT-29 = assay: Cytotoxicity against human HT-29 cells at 10^-8 M after 48 hrs by SRB assay; details: HT-29, 48 h, read-out: GI
SN12C = assay: Cytotoxicity against human SN12C cells at 10^-8 M after 48 hrs by SRB assay; details: read-out: GI
HCT-116 [13] = assay: Cytotoxicity against human HCT116 cells at 10^-8 M after 48 hrs by SRB assay; details: HCT-116, 48 h, read-out: GI
T47D = assay: Cytotoxicity against human T47D cells at 10^-7 M after 48 hrs by SRB assay; details: read-out: GI
NCI-H522 = assay: Cytotoxicity against human NCI-H522 cells at 10^-8 M after 48 hrs by SRB assay; details: NCI-H522, 48 h, read-out: GI
NCI-H226 [14] = assay: Cytotoxicity against human NCI-H226 cells at 10^-8 M after 48 hrs by SRB assay; details: NCI-H226, 48 h, read-out: GI
[15] = Cytotoxicity against human UO31 cells at 10^-8 M after 48 hrs by SRB assay; details: UO-31, 48 h, read-out: GI
SNB-75 = assay: Cytotoxicity against human SNB75 cells at 10^-8 M after 48 hrs by SRB assay; details: SNB-75, 48 h, read-out: GI
NCI-H226 [16] = assay: Cytotoxicity against human NCI-H226 cells at 10^-7 M after 48 hrs by SRB assay; details: NCI-H226, 48 h, read-out: GI
SK-OV-3 = assay: Cytotoxicity against human SKOV3 cells at 10^-8 M after 48 hrs by SRB assay; details: SK-OV-3, 48 h, read-out: GI
RXF 393 [17] = assay: Cytotoxicity against human RXF393 cells at 10^-7 M after 48 hrs by SRB assay; details: RXF 393, 48 h, read-out: GI
CAKI-1 [18] = assay: Cytotoxicity against human Caki1 cells at 10^-7 M after 48 hrs by SRB assay; details: CAKI-1, 48 h, read-out: GI
HCT-15 = assay: Cytotoxicity against human HCT15 cells at 10^-8 M after 48 hrs by SRB assay; details: HCT-15, 48 h, read-out: GI
SK-MEL-5 = assay: Cytotoxicity against human SK-MEL-5 cells at 10^-8 M after 48 hrs by SRB assay; details: SK-MEL-5, 48 h, read-out: GI
M14 = assay: Cytotoxicity against human M14 cells at 10^-8 M after 48 hrs by SRB assay; details: M14, 48 h, read-out: GI
SW-620 [19] = assay: Cytotoxicity against human SW620 cells at 10^-8 M after 48 hrs by SRB assay; details: SW-620, 48 h, read-out: GI
MDA-MB-435 = assay: Cytotoxicity against human MDA-MB-435 cells at 10^-8 M after 48 hrs by SRB assay; details: MDA-MB-435, 48 h, read-out: GI
A549 = assay: Cytotoxicity against human A549 cells at 10^-8 M after 48 hrs by SRB assay; details: A549, 48 h, read-out: GI
U-251 = assay: Cytotoxicity against human U251 cells at 10^-8 M after 48 hrs by SRB assay; details: U-251, 48 h, read-out: GI
SF-295 [20] = assay: Cytotoxicity against human SF295 cells at 10^-7 M after 48 hrs by SRB assay; details: SF-295, 48 h, read-out: GI

## CCN(Cc1nc2cc(C(F)(F)F)ccc2nc1-c1ccccc1)c1ccc(OC)c(OC)c1
HOP-92
  inhibition of growth at 0.01 µM: < 40%
[1]
  inhibition of growth at 0.01 µM: 39%
KM12
  inhibition of growth at 0.1 µM: < 40%
K562
  inhibition of growth at 1 µM: < 40%
SF-539 [2]
  inhibition of growth at 0.1 µM: < 40%
HOP-62
  inhibition of growth at 0.1 µM: < 40%
HCC 2998
  inhibition of growth at 0.1 µM: < 40%
[3]
  inhibition of growth at 1 µM: < 40%
TK-10
  inhibition of growth at 0.01 µM: < 40%
LOX IMVI
  inhibition of growth at 0.01 µM: < 40%
OVCAR-3 [4]
  inhibition of growth at 0.01 µM: < 40%
SF-295 [5]
  inhibition of growth at 10 µM: 18%
MDA-MB-231
  inhibition of growth at 0.01 µM: < 40%
SW-620 [6]
  inhibition of growth at 0.1 µM: < 40%
NCI-H322M
  inhibition of growth at 0.1 µM: < 40%
SK-MEL-2
  inhibition of growth at 0.1 µM: < 40%
RXF 393 [7]
  inhibition of growth at 0.01 µM: 22%
SF-268
  inhibition of growth at 0.1 µM: < 40%
[8]
  inhibition of growth at 0.01 µM: < 40%
CAKI-1 [9]
  inhibition of growth at 0.01 µM: < 40%
SF-539 [10]
  inhibition of growth at 0.01 µM: < 40%
OVCAR-3 [11]
  inhibition of growth at 0.1 µM: < 40%
HCT-116 [12]
  inhibition of growth at 0.1 µM: < 40%
A498
  inhibition of growth at 0.01 µM: < 40%
HT-29
  inhibition of growth at 0.01 µM: < 40%
SN12C
  inhibition of growth at 0.01 µM: < 40%
HCT-116 [13]
  inhibition of growth at 0.01 µM: < 40%
T47D
  inhibition of growth at 0.1 µM: < 40%
NCI-H522
  inhibition of growth at 0.01 µM: < 40%
NCI-H226 [14]
  inhibition of growth at 0.01 µM: < 40%
[15]
  inhibition of growth at 0.01 µM: < 40%
SNB-75
  inhibition of growth at 0.01 µM: < 40%
NCI-H226 [16]
  inhibition of growth at 0.1 µM: < 40%
SK-OV-3
  inhibition of growth at 0.01 µM: < 40%
RXF 393 [17]
  inhibition of growth at 0.1 µM: 43%
CAKI-1 [18]
  inhibition of growth at 0.1 µM: < 40%
HCT-15
  inhibition of growth at 0.01 µM: < 40%
SK-MEL-5
  inhibition of growth at 0.01 µM: < 40%
M14
  inhibition of growth at 0.01 µM: < 40%
SW-620 [19]
  inhibition of growth at 0.01 µM: < 40%
MDA-MB-435
  inhibition of growth at 0.01 µM: < 40%
A549
  inhibition of growth at 0.01 µM: 19%
U-251
  inhibition of growth at 0.01 µM: < 40%
SF-295 [20]
  inhibition of growth at 0.1 µM: < 40%
